Data on two molecules can be found in patent US8623861B2, “Method of treating demyelination diseases” (priority 2006, dated 2014).

Test [1] deals with neural progenitor cell cultures. As to conditions: in vitro.
The subject of test [2] is rats. As to conditions: He et al., 2005; cited from earlier work.
The test system of test [3] is C57BL/6 mice. Here is the method: (§1) To test whether quetiapine can protect mouse brain from cuprizone-induced demyelination, 8-week old mice were fed a diet of milled LabDiet® rodent chow (PMI nutrition international LLC, Brentwood, Mo., USA) containing 0.2% cuprizone for 5 weeks (w/w) (Sigma-Aldrich, St. Louis, Mo., USA) as previously described (Morell et al., 1998). […] The study included the following 4 groups (6-8 animals/group): group 1: control, fed with regular chow (con); group 2: pre-administrated with quetiapine (10 mg/kg/day in drinking water) for 1 week, then followed by 5 weeks of quetiapine administration with normal diet (que); group 3: fed for 5 weeks on a cuprizone-containing diet (cup) with regular tap water for drinking; group 4: pre-administrated with quetiapine (10 mg/kg/day in drinking water) for 1 week, then followed by 5 weeks of quetiapine treatment with cuprizone administration (cup+que).
(§2) To study the effect of quetiapine on the remyelination process, an additional two groups (6-8 animals/group) of mice were treated with 0.2% cuprizone in milled chow for 6 weeks, and then returned to a cuprizone-free diet (Matsushima and Morell, 2001). Upon resumption of the cuprizone-free diet, mice were fed with either vehicle (water) or quetiapine (10 mg/kg/day in water, que) for 2 weeks.
Immediately after the locomotor activity test, spatial working memory was assessed by recording spontaneous alternation behavior in a Y-maze comprised of three 30-cm compartments marked as A, B, and C arms. Spontaneous alternation behavior is based on the natural tendency of rodents to explore a novel environment. In a Y-maze, mice tend to explore the maze by systematically entering each arm. For efficient alternation, mice are required to know which arms have already been visited. Therefore, alternation behavior can be regarded as a measure involving spatial working memory. […] Each mouse was placed at the end of one arm and allowed to move freely through the maze during an 8-min period. The total number and series of arm entries were recorded visually. The number of overlapping entrance sequences (e.g., ABC, BCA) was defined as the number of alternations. The effect was calculated as the percentage of alternation according to the following formula: Percent alternation=(number of alternations)/(total number of arm entries-2)×100 (Wall et al., 2002). Total entries were scored as an index of ambulatory activity in the Y-maze, and mice showing scores below six entries would be excluded.

For test [4], the system named is C57BL/6 mice. The procedure: as §1, §2
At the end of their treatment period, mice were anaesthetized with pentobarbital sodium at 50 mg/kg and perfused intracardially with 0.01 M PBS followed by 4% paraformaldehyde in PBS, and the brains were post-fixated overnight in 4% paraformaldehyde. Brain tissues were then rinsed 3 times with 0.01 M PBS and cryoprotected in 30% sucrose at 4° C. for one day and frozen at −80° C. for immunostaining. Serial coronal sections were dissected between levels 1 to −1 mm bregma, as defined in the mouse brain atlas of Franklin and Paxinos (Franklin and Paxinos, 1997). Demyelination was evaluated in frozen sections (30 μm) of the corpus callosum using Luxol fast blue with periodic acid-Schiff reaction. Floating frozen sections (30 μm) were incubated with 0.3% of H2O2 in 0.01 M PBS for 30 min at room temperature (RT) for quenching endogenous peroxidase activity, then blocked with 10% goat serum/PBS or 10% rabbit serum (for MBP staining) for 1 hour at RT, and then incubated overnight with the primary antibody(s) diluted in the blocking solution. After rinsing, the sections were incubated with the appropriate biotin-conjugated secondary antibody (1:1000; Vector Laboratories, Burlingame, Calif.) for 1 hour at RT. Sections were then developed with the avidin biotin complex kit (Vector Laboratories, Burlingame, Calif.) and the antibodies were visualized with DAB chromogen (Sigma-Aldrich, St. Louis, Mo.).
A goat polyclonal antibody directed against MBP (1:250; Santa Cruz Biotechnology, CA) was used to detect myelin. A rabbit anti-pi isoform of glutathione S-transferase (GST-pi, 1:500; Stressgen, Victoria, BC, Canada) was used as a marker for mature oligodendrocytes (Mason et al., 2004); Ness et al., 2005). The rabbit polyclonal NG2 antibody (1:200; Chemicon, Temecula, Calif.) was used as a marker for oligodendrocyte progenitors (Nishiyama et al., 1996).
For GST-pi and NG2 quantification, three digital pictures from the coronal section from each animal (including the middle line and the two edges of the corpus callosum in each section) were examined. Cell counts are expressed as the mean number of positive cells counted in three coronal sections from two different areas, 500 μm apart, between 1 to −1 mm bregma, following the mouse brain atlas of Franklin and Paxinos (Franklin and Paxinos, 1997). Results are expressed as the average of at least 6 mice per group. For MBP staining analysis, three digital pictures from the coronal section (including cerebral cortex) of each animal were examined, at least 6 animals of each group.
This is another data set of the same source.

The conditions of test [5]: He et al., 2006; Martin et al., 2005; cited from earlier work.
For test [6], the system named is PC 12 cell. As to conditions: serum withdrawal or addition of hydrogen peroxide, β-amyloid peptide or MPP+; cited from earlier work.
The test system of test [7] is C57BL/6 mice. As to conditions: all groups (con, que, cup, cup+que); data not shown. Here is the method: as §1, §2
Test [8] has as its system BDNF. As to conditions: Xu et al., 2002; Luo et al., 2004; cited from earlier work.
[9] abbreviates: 2 weeks of recovery from cuprizone, quetiapine 10 mg/kg/day in water vs. vehicle (water).
Where [10] appears, read: 0.2% cuprizone 5 weeks with quetiapine co-administration vs. cuprizone alone.
Setting [11] is: quetiapine alone with normal diet vs. control.

Turning to `OCCOCCN1CCN(C2=Nc3ccccc3Sc3ccccc32)CC1` [quetiapine], the “proliferation and differentiation of oligodendrocytes” value in test [1] was “promoted the proliferation and differentiation of oligodendrocytes”. In addition, the “short- and long-term behavioral consequences of chronic dl-amphetamine” value in test [2] was “modulate the short- and long-term behavioral consequences”. Also, in test [3] (0.2% cuprizone 5 weeks, co-administration of quetiapine 10 mg/kg/day p.o.), the “total number of arm entries in Y-maze” value is recorded as “decreased the rise of the total number of arm entries induced by cuprizone”. Further, in test [3] (0.2% cuprizone 5 weeks, co-administration of quetiapine 10 mg/kg/day p.o., ++p<0.01 vs. cuprizone), the “impairment of spontaneous alternation behavior in the Y-maze” value was “significantly attenuated the impairment of spontaneous alternation behavior”. Also, in test [3] (setting [9]), the “memory impairment in Y-maze during remyelination” value is “did not appear to improve memory impairment” and the “total arm entries in the Y-maze during remyelination” value was “did not appear to improve memory impairment or alter the total arm entries”. In test [4] (0.2% cuprizone 5 weeks with quetiapine co-administration), the “loss of GST-pi+ mature oligodendrocytes in the corpus callosum” value was “did not reverse the loss of mature oligodendrocytes”. Besides, in test [4] (setting [10]), the “demyelination in LFB-PAS staining” value is reported as “showed the same trend as MBP staining”, the “number of NG2+ cells within the demyelinated areas” value is “dramatically decreased the number of NG2+ cells” and the “reduction of demyelination in MBP staining” value is given as 35%. The “remyelination in demyelinated lesions (MBP and LFB-PAS)” value in test [4] (2-week recovery from cuprizone, quetiapine vs. vehicle (water)) was “no difference between the vehicle (water) and quetiapine treatment on remyelination”. Also, in test [4] (2 weeks recovery from cuprizone, quetiapine vs. water), the “NG2+ cells after recovery” value is “had little effect on this change”. The “GST-pi+ mature oligodendrocytes during remyelination” value in test [4] (2 weeks recovery from demyelination, quetiapine vs. water, +p<0.05 vs. water) was “dramatically increased”. The “NG2+ cells, quetiapine alone” value in test [4] (quetiapine alone with normal diet) is given as “Few NG2+ cells were observed”. In test [4] (setting [11]), the “GST-pi+ cells, quetiapine alone” value is “had no difference” and the “myelination (MBP staining), quetiapine alone” value is recorded as “show no difference on myelination”. In addition, in test [5], the “memory deficits induced by phencyclidine and kainic acid” value is on record as “could reverse memory deficits”. In addition, the “PC 12 cell death” value in test [6] was “reduce the PC 12 cell death”. Moreover, the locomotor activity entry in test [7] was “no significant difference among groups”. The “expression of BDNF in rat hippocampus after immobilization stress” value in test [8] is listed as “attenuate the immobilization stress-induced decrease in the expression of BDNF”.
`Cc1nc2n(c(=O)c1CCN1CCC(c3noc4cc(F)ccc34)CC1)CCCC2` [risperidone]: the “PC 12 cell death” value in test [6] is reported as “reduce the PC 12 cell death”.
